Assay results from US6706663B2, “Herbicidal 3-heterocyclic substituted benzisothiazole and benzisoxazole compounds” (Wyeth, priority 2000, dated 2004).

How the values were obtained:
ORYSAT (Rice, Tebonnet) [1] = assay: Flooded paddy, post-transplant rice tolerance; assay type: in vivo, Oryza sativa, (L.) Tebonnet; settings: flooded paddy, post-transplant rice, rated 3-4 weeks after treatment, 0-9 rating scale
In short: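 Visual 0–9 injury rating against a control, covering stand, vigor, malformation, size, chlorosis and overall appearance. Treatment was post-transplant onto flooded containers (water 1.5–3 cm deep, silt loam) holding two ten-day-old cv. Tebonnet seedlings, maintained on greenhouse benches.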

ZEAMX (Corn, Field) = assay: Postemergence herbicidal evaluation; assay type: in vivo, Zea mays, L.; settings: postemergence
In short: (§1)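 Seedlings grown for about two weeks were sprayed postemergence and then kept under standard greenhouse care. Injury was rated visually 4–5 weeks after treatment on a 0–9 scale against untreated controls, and ratings from repeat tests were averaged.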

[2] = tested on: IPOHE (Ipomoea hederacea); assay: Postemergence herbicidal evaluation; assay type: in vivo, (L.) Jacq.; settings: postemergence
In short: as §1

[3] = tested on: AMBEL (Ambrosia artemisifolia); assay: Postemergence herbicidal evaluation; assay type: in vivo, L.; settings: postemergence
In short: as §1

[4] = tested on: CASOB (Cassia obtusifolia); assay: Postemergence herbicidal evaluation; assay type: in vivo, L.; settings: postemergence
In short: as §1

[5] = tested on: CHEAL (Chenopodium album); assay: Postemergence herbicidal evaluation; assay type: in vivo, L.; settings: postemergence
In short: as §1

[6] = tested on: ECHORC (Echinochloa oryzoides); assay: Flooded paddy, preemergence weed control; assay type: in vivo, Echinochloa oryzoides (Ard.) Fritsch.; settings: rated 3-4 weeks after treatment, 0-9 rating scale
In short: (§2)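 Greenhouse paddy test, preemergence. Seeds planted in the top 0.5 cm of silt loam soil, which remained flooded at 1.5–3 cm depth. Scored 0-9 by visual comparison with control.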

ORYSAT (Rice, Tebonnet) [7] = assay: Postemergence herbicidal evaluation; assay type: in vivo, Oryza sativa, (L.) Tebonnet; settings: postemergence
In short: as §1

[8] = tested on: ABUTH (Abutilon theophrasti); assay: Postemergence herbicidal evaluation; assay type: in vivo, Medic.; settings: postemergence
In short: as §1

[9] = tested on: ECHCG (Echinochloa crus-galli); assay: Postemergence herbicidal evaluation; assay type: in vivo, (L.) Beau; settings: postemergence
In short: as §1

ORYSAT (Rice, Tebonnet) [10] = assay: Preemergence herbicidal evaluation; assay type: in vivo, Oryza sativa, (L.) Tebonnet; settings: rated 4-5 weeks after treatment
[11] = tested on: SAGPY (Sagittaria pygmaea); assay: Flooded paddy, preemergence weed control; assay type: in vivo, L.; settings: rated 3-4 weeks after treatment, 0-9 rating scale
In short: as §2

[12] = tested on: ABUTH (Abutilon theophrasti); assay: Preemergence herbicidal evaluation; assay type: in vivo, Medic.; settings: rated 4-5 weeks after treatment
[13] = tested on: AMBEL (Ambrosia artemisifolia); assay: Preemergence herbicidal evaluation; assay type: in vivo, L.; settings: rated 4-5 weeks after treatment
In short: (§3)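 Test compound is applied in aqueous acetone to cups just after seeding. Cups are watered and maintained on greenhouse benches. Each cup is scored 0–9 by eye relative to a control after four to five weeks.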

[14] = tested on: CASOB (Cassia obtusifolia); assay: Preemergence herbicidal evaluation; assay type: in vivo, L.; settings: rated 4-5 weeks after treatment
In short: as §3

[15] = tested on: CHEAL (Chenopodium album); assay: Preemergence herbicidal evaluation; assay type: in vivo, L.; settings: rated 4-5 weeks after treatment
In short: as §3

[16] = tested on: TRZAWR (Wheat, Winter, cv Riband); assay: Preemergence herbicidal evaluation; assay type: in vivo, Triticum aestivum; settings: rated 4-5 weeks after treatment
In short: as §3

[17] = tested on: TRZAWR (Wheat, Winter, cv Riband); assay: Postemergence herbicidal evaluation; assay type: in vivo, Triticum aestivum; settings: postemergence
In short: as §1

Cn1c(C(F)(F)F)cc(=O)n(-c2ccc3snc(C4OCC(c5ccccc5)O4)c3c2)c1=O (stereo not drawn) [Compound 78, 1-methyl-3-[3-(4-phenyl-1,3-dioxolan-2-yl)-1,2-benzisothiazol-5-yl]-6-(trifluoromethyl)uracil]
9.0: IPOHE herbicidal rating ([2]; rate 0.0320 kg/ha) | IPOHE herbicidal rating ([2]; rate 0.0620 kg/ha) | AMBEL herbicidal rating ([3]; rate 0.0320 kg/ha) | AMBEL herbicidal rating ([3]; rate 0.0620 kg/ha) | CASOB herbicidal rating ([4]; rate 0.0320 kg/ha) | CHEAL herbicidal rating ([5]; rate 0.0320 kg/ha) | CHEAL herbicidal rating ([5]; rate 0.0620 kg/ha) | herbicidal rating, ECHORC ([6]; rate 0.0320 kg/ha) | herbicidal rating, ECHORC ([6]; rate 0.1250 kg/ha) | ABUTH herbicidal rating ([8]; rate 0.0320 kg/ha) | ABUTH herbicidal rating ([8]; rate 0.0620 kg/ha) | herbicidal rating, SAGPY ([11]; rate 0.1250 kg/ha) | Preemergence herbicidal rating ABUTH ([12]; Rate 0.0620 kg/ha) | Preemergence herbicidal rating ABUTH ([12]; Rate 0.1250 kg/ha) | Preemergence herbicidal rating ABUTH ([12]; Rate 0.2500 kg/ha) | Preemergence herbicidal rating AMBEL ([13]; Rate 0.0620 kg/ha) | Preemergence herbicidal rating AMBEL ([13]; Rate 0.1250 kg/ha) | Preemergence herbicidal rating AMBEL ([13]; Rate 0.2500 kg/ha) | Preemergence herbicidal rating CHEAL ([15]; Rate 0.0620 kg/ha) | Preemergence herbicidal rating CHEAL ([15]; Rate 0.1250 kg/ha) | Preemergence herbicidal rating CHEAL ([15]; Rate 0.2500 kg/ha)
8.5: herbicidal rating, ORYSAT (rice tolerance) (ORYSAT (Rice, Tebonnet) [1]; rate 0.1250 kg/ha)
5.7: herbicidal rating, ORYSAT (rice tolerance) (ORYSAT (Rice, Tebonnet) [1]; rate 0.0320 kg/ha)
5.0: Preemergence herbicidal rating TRZAWR ([16]; Rate 0.0620 kg/ha) | Preemergence herbicidal rating TRZAWR ([16]; Rate 0.1250 kg/ha) | TRZAWR herbicidal rating ([17]; rate 0.0620 kg/ha)
4.0: herbicidal rating, ORYSAT (rice tolerance) (ORYSAT (Rice, Tebonnet) [1]; rate 0.0080 kg/ha) | ORYSAT herbicidal rating (ORYSAT (Rice, Tebonnet) [7]; rate 0.0320 kg/ha) | ORYSAT herbicidal rating (ORYSAT (Rice, Tebonnet) [7]; rate 0.0620 kg/ha) | Preemergence herbicidal rating CASOB ([14]; Rate 0.1250 kg/ha)
2.5: Preemergence herbicidal rating ORYSAT (ORYSAT (Rice, Tebonnet) [10]; Rate 0.1250 kg/ha)
8.0: herbicidal rating, ECHORC ([6]; rate 0.0080 kg/ha)
3.5: ZEAMX herbicidal rating (ZEAMX (Corn, Field); rate 0.0320 kg/ha) | ZEAMX herbicidal rating (ZEAMX (Corn, Field); rate 0.0620 kg/ha) | TRZAWR herbicidal rating ([17]; rate 0.0320 kg/ha)
0.0: herbicidal rating, SAGPY ([11]; rate 0.0080 kg/ha)
2.0: ECHCG herbicidal rating ([9]; rate 0.0320 kg/ha) | Preemergence herbicidal rating ORYSAT (ORYSAT (Rice, Tebonnet) [10]; Rate 0.0620 kg/ha) | Preemergence herbicidal rating CASOB ([14]; Rate 0.0620 kg/ha)
6.0: CASOB herbicidal rating ([4]; rate 0.0620 kg/ha) | Preemergence herbicidal rating CASOB ([14]; Rate 0.2500 kg/ha) | Preemergence herbicidal rating TRZAWR ([16]; Rate 0.2500 kg/ha)
3.0: ECHCG herbicidal rating ([9]; rate 0.0620 kg/ha) | Preemergence herbicidal rating ORYSAT (ORYSAT (Rice, Tebonnet) [10]; Rate 0.2500 kg/ha)
1.0: herbicidal rating, SAGPY ([11]; rate 0.0320 kg/ha)

Cn1c(C(F)(F)F)cc(=O)n(-c2ccc3snc(-c4sccc4CBr)c3c2)c1=O [Compound 80, 3-[3-[3-(bromomethyl)-2-thienyl]-1,2-benzisothiazol-5-yl]-1-methyl-6-(trifluoromethyl)uracil]
6.0: ABUTH herbicidal rating ([8]; rate 0.0320 kg/ha) | Preemergence herbicidal rating ORYSAT (ORYSAT (Rice, Tebonnet) [10]; Rate 0.2500 kg/ha)
1.5: Preemergence herbicidal rating CASOB ([14]; Rate 0.2500 kg/ha)
4.5: herbicidal rating, SAGPY ([11]; rate 0.0320 kg/ha)
1.0: herbicidal rating, ECHORC ([6]; rate 0.0080 kg/ha)
5.5: herbicidal rating, ORYSAT (rice tolerance) (ORYSAT (Rice, Tebonnet) [1]; rate 0.0320 kg/ha) | ZEAMX herbicidal rating (ZEAMX (Corn, Field); rate 0.0620 kg/ha) | Preemergence herbicidal rating CHEAL ([15]; Rate 0.0620 kg/ha)
9.0: IPOHE herbicidal rating ([2]; rate 0.0320 kg/ha) | IPOHE herbicidal rating ([2]; rate 0.0620 kg/ha) | AMBEL herbicidal rating ([3]; rate 0.0620 kg/ha) | CHEAL herbicidal rating ([5]; rate 0.0320 kg/ha) | CHEAL herbicidal rating ([5]; rate 0.0620 kg/ha) | ABUTH herbicidal rating ([8]; rate 0.0620 kg/ha) | Preemergence herbicidal rating ABUTH ([12]; Rate 0.1250 kg/ha) | Preemergence herbicidal rating ABUTH ([12]; Rate 0.2500 kg/ha) | Preemergence herbicidal rating AMBEL ([13]; Rate 0.1250 kg/ha) | Preemergence herbicidal rating AMBEL ([13]; Rate 0.2500 kg/ha) | Preemergence herbicidal rating CHEAL ([15]; Rate 0.2500 kg/ha)
7.5: Preemergence herbicidal rating CHEAL ([15]; Rate 0.1250 kg/ha)
3.0: TRZAWR herbicidal rating ([17]; rate 0.0320 kg/ha)
3.5: ZEAMX herbicidal rating (ZEAMX (Corn, Field); rate 0.0320 kg/ha) | ORYSAT herbicidal rating (ORYSAT (Rice, Tebonnet) [7]; rate 0.0320 kg/ha) | ORYSAT herbicidal rating (ORYSAT (Rice, Tebonnet) [7]; rate 0.0620 kg/ha) | TRZAWR herbicidal rating ([17]; rate 0.0620 kg/ha)
7.0: AMBEL herbicidal rating ([3]; rate 0.0320 kg/ha) | herbicidal rating, SAGPY ([11]; rate 0.1250 kg/ha)
4.0: herbicidal rating, ECHORC ([6]; rate 0.0320 kg/ha) | Preemergence herbicidal rating ABUTH ([12]; Rate 0.0620 kg/ha)
8.0: herbicidal rating, ORYSAT (rice tolerance) (ORYSAT (Rice, Tebonnet) [1]; rate 0.1250 kg/ha) | herbicidal rating, ECHORC ([6]; rate 0.1250 kg/ha)
2.0: Preemergence herbicidal rating TRZAWR ([16]; Rate 0.2500 kg/ha)
2.5: herbicidal rating, ORYSAT (rice tolerance) (ORYSAT (Rice, Tebonnet) [1]; rate 0.0080 kg/ha) | Preemergence herbicidal rating ORYSAT (ORYSAT (Rice, Tebonnet) [10]; Rate 0.1250 kg/ha)
5.0: CASOB herbicidal rating ([4]; rate 0.0320 kg/ha) | CASOB herbicidal rating ([4]; rate 0.0620 kg/ha) | Preemergence herbicidal rating AMBEL ([13]; Rate 0.0620 kg/ha)
0.0: ECHCG herbicidal rating ([9]; rate 0.0320 kg/ha) | ECHCG herbicidal rating ([9]; rate 0.0620 kg/ha) | herbicidal rating, SAGPY ([11]; rate 0.0080 kg/ha) | Preemergence herbicidal rating CASOB ([14]; Rate 0.0620 kg/ha) | Preemergence herbicidal rating CASOB ([14]; Rate 0.1250 kg/ha) | Preemergence herbicidal rating TRZAWR ([16]; Rate 0.0620 kg/ha) | Preemergence herbicidal rating TRZAWR ([16]; Rate 0.1250 kg/ha)
0.5: Preemergence herbicidal rating ORYSAT (ORYSAT (Rice, Tebonnet) [10]; Rate 0.0620 kg/ha)
